Assay [1] relates to Jurkat HIV-luciferase clones. As to the kind of experiment: Jurkat latency reversal assay. The class given is cell-based. The following applies: Homo sapiens, 48 h; Jurkat latency reversal assay potency; read-out: Jurkat pEC50 (converted). In short, it runs like this: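 Pooled Jurkat clones C16, 115 and N6, each carrying one or two integrated HIV-luciferase proviruses and kept in 500 nM EFV, were exposed to 3-fold, 14-point compound titrations in duplicate (10 μM top, 0.5% DMSO) for 48 h at 37° C. Luciferase luminescence was fitted by four-parameter logistic regression for EC50 and maximal percent activation versus vehicle.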

A further assay addresses XIAP-BIR3 (Homo sapiens (Human), UniProt P98170). Briefly: BIR binding assay (FRET competition), XIAP BIR3. The following applies: for XIAP BIR3 vs BIR2 separation window: fold separation (FS) for XIAP. In short, it runs like this:
(§1)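 Compounds tested as 15-point, 3-fold series displacing 200 nM AlexaFluor647-labelled SMAC peptide from His-tagged BIR domain (cIAP1-BIR3 50 nM; cIAP1-BIR2 and cIAP2-BIR2 325 nM; XIAP-BIR3 100 nM), pH 7.4, 60 min. Eu-W1024 (2 nM) added 30 min; emission ratio fitted for IC50.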

The next assay concerns the target cIAP1-BIR3 (Homo sapiens (Human), UniProt Q13490). Briefly: BIR binding assay (FRET competition), cIAP1 BIR3. Conditions: for cIAP1 BIR3 vs BIR2 separation window: fold separation (FS) for cIAP1. The procedure, abridged:
as §1

A further assay has as its target cIAP2-BIR3 (Homo sapiens (Human), UniProt Q13489). Briefly: BIR binding assay (FRET competition), cIAP2 BIR3. The following applies: for cIAP2 BIR3 vs BIR2 separation window: fold separation (FS) for cIAP2.
The target of a further assay is cIAP2-BIR2 (Homo sapiens (Human), UniProt Q13489). Briefly: BIR binding assay (FRET competition), cIAP2 BIR2. In short, it runs like this:
as §1

The target of the next assay is XIAP-BIR2 (Homo sapiens (Human), UniProt P98170). Briefly: BIR binding assay (FRET competition), XIAP BIR2. The protocol: The BIR domain binding assays are FRET based competition assays that utilize His-tagged versions of each of the BIR2 and BIR3 domains from cIAP1, cIAP2, and XIAP (each domain assayed separately) each at a custom optimal concentration and a probe, 200 nM SMAC/DIABLO peptide AVPIAQKSE labelled with AlexaFluor647 (part #crb 1110326h, Discovery Peptides). The assay is conducted in 50 mM HEPES, […], 1 mM CHAPS, 5% Glycerol, 1 mM DTT, in dI water with a final pH of 7.4 and final volume of 20 uL. Final protein domain concentrations are: 50 nM cIAP1-BIR3 (Part #APT-11-370 Reaction Biology), 100 nM XIAP-BIR3 (Part #APT-11-351 Reaction Biology), 200 nM XIAP-BIR2 (Part #APT-11-470 Reaction Biology), 325 nM cIAP2-BIR2 (Part #APT-11-489 Reaction Biology), 50 nM cIAP2-BIR3 (Part #APT-11-372 Reaction Biology), 325 nM cIAP1-BIR2 (Part #APT-11-487 Reaction Biology). Compounds were plated using a HP Tecan D300 printer in a final total volume of 202 nl and DMSO concentration normalized across the 15-point, 3-fold dilution series. Peptide and probe were prepared at 2× relative to the concentrations above in binding buffer, 10 uL added to the prepared compound plates, and incubated for 60 minutes. LANCE Eu-W1024 (part #AD0401 Perkin Elmer #, vendor) was prepared at 2× concentration in binding buffer for final concentration of 2 nM, 10 uL added to each well, and plates incubated for 30 minutes. Plates were read on an ENVISION multifunction plate reader with […] laser excitation to obtain the 615 nm/665 nm emission ratio as indicative of probe:protein proximity. Data was analyzed using GraphPad PRISM and curves fit using log(inhibitor) vs. response—Variable slope (four […] method to obtain IC50 and pIC50 values.
XIAP-BIR2, sequence (P98170 124-240): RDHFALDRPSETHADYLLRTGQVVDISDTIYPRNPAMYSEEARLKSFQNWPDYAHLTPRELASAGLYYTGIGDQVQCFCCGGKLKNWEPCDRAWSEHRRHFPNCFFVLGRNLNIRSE

Another assay addresses cIAP1-BIR2 (Homo sapiens (Human), UniProt Q13490). As to the kind of experiment: BIR binding assay (FRET competition), cIAP1 BIR2. The procedure, abridged:
as §1

Where [2] appears, read: FRET competition binding, read-out: XIAP BIR2 (pIC50) (converted).
[3] abbreviates: FRET competition, read-out: XIAP BIR2 (pIC50) (converted).

The structures appear in SMILES notation. Read-outs that look alike come from different tables or passages of the source.

cIAP2-BIR3, sequence (Q13489 238-349): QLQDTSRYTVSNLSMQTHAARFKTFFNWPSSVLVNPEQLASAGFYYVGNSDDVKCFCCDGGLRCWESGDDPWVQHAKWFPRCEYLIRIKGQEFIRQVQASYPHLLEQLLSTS
XIAP-BIR3, sequence (P98170 241-356): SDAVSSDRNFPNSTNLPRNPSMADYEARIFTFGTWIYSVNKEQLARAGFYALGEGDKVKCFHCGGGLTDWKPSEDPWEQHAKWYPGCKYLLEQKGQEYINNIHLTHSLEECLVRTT
cIAP1-BIR2, sequence (Q13490 173-257): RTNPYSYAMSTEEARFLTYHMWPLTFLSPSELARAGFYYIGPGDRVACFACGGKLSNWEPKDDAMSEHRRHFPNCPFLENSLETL
cIAP2-BIR2, sequence (Q13489 158-242): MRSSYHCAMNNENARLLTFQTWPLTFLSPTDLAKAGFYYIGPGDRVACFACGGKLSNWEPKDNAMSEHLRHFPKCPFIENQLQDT
cIAP1-BIR3, sequence (Q13490 253-363): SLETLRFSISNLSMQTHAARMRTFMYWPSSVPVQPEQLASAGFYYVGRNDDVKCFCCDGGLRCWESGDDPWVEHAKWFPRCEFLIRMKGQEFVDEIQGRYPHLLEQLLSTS

Consider `C[C@@H]1CN(CC(=O)N2CC(C)(C)c3[nH]c(=O)c(Cc4ccc(F)cc4)cc32)[C@@H](CN2CCN(C(=O)COCCOCCOCC(=O)N3CCN(C[C@H]4CN[C@H](C)CN4CC(=O)N4CC(C)(C)c5[nH]c(=O)c(Cc6ccc(F)cc6)cc54)[C@H](C)C3)C[C@H]2C)CN1` (stereo in doubt) [Example 6, 1,1′-(2,2′-((3R,3′R,6R,6′R)-(((2R,2′R)-(2,2′-((oxybis(ethane-2,1-diyl))bis(oxy))bis(acetyl))bis(2-methylpiperazine-4,1-diyl))bis(methylene))bis(3-methylpiperazine-6,1-diyl))bis(acetyl))bis(6-(4-fluorobenzyl)-3,3-dimethyl-1,2,3,4-tetrahydro-5H-pyrrolo[3,2-b]pyridin-5-one)], for which the EC50 in assay [1] is 63.1 to 316 nM. The IC50 at XIAP-BIR3 was 1.38 to 7.94 nM; at cIAP1-BIR3, 1.38 to 7.94 nM; on cIAP2-BIR3, 1.38 to 7.94 nM; at cIAP2-BIR2 it was 22.4 to 1000 nM; at XIAP-BIR2 (setting [2]) it was 10000 to 51300 nM; at cIAP1-BIR2, 22.4 to 1000 nM. For the same compound, the “XIAP BIR3 vs BIR2 separation window” value on XIAP-BIR3 is given as “++++ (FS>10,000)”. For the same compound, the “cIAP1 BIR3 vs BIR2 separation window” value at cIAP1-BIR3 is listed as “+++ (10,000>FS>1,000)”. Besides, the “cIAP2 BIR3 vs BIR2 separation window” value at cIAP2-BIR3 is reported as “+++ (10,000>FS>1,000)”.

As to `C[C@@H]1CN(CC(=O)N2CC(C)(C)c3[nH]c(=O)c(Cc4ccc(F)cc4)cc32)[C@@H](CN2CCO[C@H](C(=O)NCC3CCN(C(=O)[C@@H]4CN(C[C@H]5CN[C@H](C)CN5CC(=O)N5CC(C)(C)c6[nH]c(=O)c(Cc7ccc(F)cc7)cc65)CCO4)CC3)C2)CN1` [Compound 133, (S)-4-(((2R,5R)-1-(2-(6-(4-fluorobenzyl)-3,3-dimethyl-5-oxo-2,3,4,5-tetrahydro-1H-pyrrolo[3,2-b]pyridin-1-yl)-2-oxoethyl)-5-methylpiperazin-2-yl)methyl)-N-((1-((S)-4-(((2R,5R)-1-(2-(6-(4-fluorobenzyl)-3,3-dimethyl-5-oxo-2,3,4,5-tetrahydro-1H-pyrrolo[3,2-b]pyridin-1-yl)-2-oxoethyl)-5-methylpiperazin-2-yl)methyl)morpholine-2-carbonyl)piperidin-4-yl)methyl)morpholine-2-carboxamide], the EC50 in assay [1] was 63.1 to 316 nM. In addition, the IC50 on XIAP-BIR3 was 15.8 to 31.6 nM; at cIAP1-BIR3 it was 31.6 to 501 nM; on cIAP2-BIR3 it was 7.94 to 15.8 nM; on cIAP2-BIR2, 3160 to 10000 nM; at XIAP-BIR2 (setting [3]), 10000 to 51300 nM; on cIAP1-BIR2, 1000 to 3160 nM. The “XIAP BIR3 vs BIR2 separation window” value at XIAP-BIR3 is reported as “++++ (FS>10,000)”. Also, the “cIAP1 BIR3 vs BIR2 separation window” value on cIAP1-BIR3 is listed as “++ (1,000>FS>100)”. In addition, at cIAP2-BIR3, the “cIAP2 BIR3 vs BIR2 separation window” value is “+++ (10,000>FS>1,000)”.

As to `C[C@@H]1CN(CC(=O)N2CC(C)(C)c3ncc(Oc4ccc(F)cc4)cc32)[C@@H](CN2CCO[C@H](COc3cccc(OC[C@@H]4CN(C[C@H]5CN[C@H](C)CN5CC(=O)N5CC(C)(C)c6ncc(Oc7ccc(F)cc7)cc65)CCO4)c3)C2)CN1` [Compound 142, 1-[6-(4-fluorophenoxy)-3,3-dimethyl-2H-pyrrolo[3,2-b]pyridin-1-yl]-2-[(2R,5R)-2-[[(2S)-2-[[3-[[(2S)-4-[[(2R,5R)-1-[2-[6-(4-fluorophenoxy)-3,3-dimethyl-2H-pyrrolo[3,2-b]pyridin-1-yl]-2-oxo-ethyl]-5-methyl-piperazin-2-yl]methyl]morpholin-2-yl]methoxy]phenoxy]methyl]morpholin-4-yl]methyl]-5-methyl-piperazin-1-yl]ethanone], the EC50 in assay [1] was 12.6 to 63.1 nM. Besides, the IC50 is 31.6 to 501 nM on XIAP-BIR3; 15.8 to 31.6 nM at cIAP1-BIR3; 15.8 to 31.6 nM on cIAP2-BIR3; 10000 to 51300 nM at XIAP-BIR2 (setting [3]); 10000 to 51300 nM at cIAP1-BIR2. The “XIAP BIR3 vs BIR2 separation window” value at XIAP-BIR3 is reported as “+++ (10,000>FS>1,000)”. Besides, the “cIAP1 BIR3 vs BIR2 separation window” value at cIAP1-BIR3 is on record as “+++ (10,000>FS>1,000)”.

Consider `C[C@@H]1CN(CC(=O)N2CC(C)(C)c3[nH]c(=O)c(Oc4ccc(Cl)cc4)cc32)[C@@H](CN2CCO[C@H](C(=O)NCc3ccc(CNC(=O)[C@@H]4CN(C[C@H]5CN[C@H](C)CN5CC(=O)N5CC(C)(C)c6[nH]c(=O)c(Oc7ccc(Cl)cc7)cc65)CCO4)cc3)C2)CN1` [Compound 182, (2S,2′S)-N,N′-(1,4-phenylenebis(methylene)) bis(4-(((2R,5R)-1-(2-(6-(4-chlorophenoxy)-3,3-dimethyl-5-oxo-2,3,4,5-tetrahydro-1H-pyrrolo[3,2-b]pyridin-1-yl)-2-oxoethyl)-5-methylpiperazin-2-yl)methyl)morpholine-2-carboxamide)], for which the EC50 in assay [1] was 63.1 to 316 nM. Moreover, the IC50 at XIAP-BIR3 was 31.6 to 501 nM; at cIAP1-BIR3 it was 7.94 to 15.8 nM; at cIAP2-BIR3, 1.38 to 7.94 nM; on cIAP2-BIR2 it was 3160 to 10000 nM; on XIAP-BIR2 (setting [3]), 10000 to 51300 nM. At XIAP-BIR3, the “XIAP BIR3 vs BIR2 separation window” value is “+++ (10,000>FS>1,000)”. In addition, the “cIAP2 BIR3 vs BIR2 separation window” value on cIAP2-BIR3 was “+++ (10,000>FS>1,000)”.

On to `C[C@@H]1CN(CC(=O)N2CC(C)(C)c3[nH]c(=O)c(Cc4ccc(F)cc4)cc32)[C@@H](CN2CCO[C@H](COc3ccc(Oc4cccc(Oc5ccc(OC[C@@H]6CN(C[C@H]7CN[C@H](C)CN7CC(=O)N7CC(C)(C)c8[nH]c(=O)c(Cc9ccc(F)cc9)cc87)CCO6)cc5)c4)cc3)C2)CN1` [Example 60, 1,1′-(2,2′-((3R,3′R,6R,6′R)-(((2S,2'S)-((((1,3-phenylenebis(oxy))bis(4,1-phenylene))bis(oxy))bis(methylene))bis(morpholine-2,4-diyl))bis(methylene))bis(3-methylpiperazine-6,1-diyl))bis(acetyl))bis(6-(4-fluorobenzyl)-3,3-dimethyl-1,2,3,4-tetrahydro-5H-pyrrolo[3,2-b]pyridin-5-one)], for which the EC50 in assay [1] is 12.6 to 63.1 nM. Moreover, the IC50 on XIAP-BIR3 fell in the range of 31.6 to 501 nM; on cIAP1-BIR3, 31.6 to 501 nM; on cIAP2-BIR3 it was 15.8 to 31.6 nM; on cIAP2-BIR2, 10000 to 51300 nM; on XIAP-BIR2, 10000 to 51300 nM. Besides, the “XIAP BIR3 vs BIR2 separation window” value on XIAP-BIR3 is listed as “++++ (FS>10,000)”. Besides, on cIAP2-BIR3, the “cIAP2 BIR3 vs BIR2 separation window” value is listed as “++++ (FS>10,000)”.

As for `C[C@@H]1CN(CC(=O)N2CC(C)(C)c3[nH]c(=O)c(Cc4ccc(F)cc4)cc32)[C@@H](CN2CCC(C(F)(F)COc3cccc(OCC(F)(F)C4CCN(C[C@H]5CN[C@H](C)CN5CC(=O)N5CC(C)(C)c6[nH]c(=O)c(Cc7ccc(F)cc7)cc65)CC4)c3)CC2)CN1` [Example 110, 1,1′-(2,2′-((3R,3′R,6R,6′R)-((((1,3-phenylenebis(oxy))bis(1,1-difluoroethane-2,1-diyl))bis(piperidine-4,1-diyl))bis(methylene))bis(3-methylpiperazine-6,1-diyl))bis(acetyl))bis(6-(4-fluorobenzyl)-3,3-dimethyl-1,2,3,4-tetrahydro-5H-pyrrolo[3,2-b]pyridin-5-one)], in assay [1], the EC50 is 0.49 to 12.6 nM. Besides, the IC50 at XIAP-BIR3 is 15.8 to 31.6 nM; on cIAP1-BIR3 it was 15.8 to 31.6 nM; on cIAP2-BIR3, 15.8 to 31.6 nM; on XIAP-BIR2 (setting [2]), 10000 to 51300 nM. At XIAP-BIR3, the “XIAP BIR3 vs BIR2 separation window” value is listed as “++++ (FS>10,000)”.

For the origin of these results see US20250326771A1, “PIPERAZINE DERIVATIVES USEFUL IN HIV THERAPY” (VIIV HEALTHCARE COMPANY, priority 2022, published 2025).
